# Reference: patent publication US20260258035A1, “FIVE-MEMBERED AND SIX-MEMBERED NITROGEN-CONTAINING COMPOUND, AND INTERMEDIATE, PREPARATION METHOD AND USE THEREOF” (HANGZHOU SYNRX THERAPEUTICS BIOMEDICAL TECHNOLOGY CO., LTD., priority 2022, published 2026)
# Where two headings read alike, the source gives them in different places.
# Assays:
# PARG = PARG (Homo sapiens, UniProt Q86W56); test: Biochemical assay (PARG, TFMU-ADPr substrate)
# HCC1806 = test: Cell viability assay (CellTiter-Glo); assay type: cell-based, Human; conditions: read-out: IC50 (nM) in cell viability assay
# [1] = Homo sapiens, HCC1806, 168 h, HCC1806, 7 days, CellTiter-Glo
# [2] = 4 nM PARG, 66.2 uM TFMU-ADPr, 3 min at room temperature
# PARG, sequence (Q86W56 whole entry): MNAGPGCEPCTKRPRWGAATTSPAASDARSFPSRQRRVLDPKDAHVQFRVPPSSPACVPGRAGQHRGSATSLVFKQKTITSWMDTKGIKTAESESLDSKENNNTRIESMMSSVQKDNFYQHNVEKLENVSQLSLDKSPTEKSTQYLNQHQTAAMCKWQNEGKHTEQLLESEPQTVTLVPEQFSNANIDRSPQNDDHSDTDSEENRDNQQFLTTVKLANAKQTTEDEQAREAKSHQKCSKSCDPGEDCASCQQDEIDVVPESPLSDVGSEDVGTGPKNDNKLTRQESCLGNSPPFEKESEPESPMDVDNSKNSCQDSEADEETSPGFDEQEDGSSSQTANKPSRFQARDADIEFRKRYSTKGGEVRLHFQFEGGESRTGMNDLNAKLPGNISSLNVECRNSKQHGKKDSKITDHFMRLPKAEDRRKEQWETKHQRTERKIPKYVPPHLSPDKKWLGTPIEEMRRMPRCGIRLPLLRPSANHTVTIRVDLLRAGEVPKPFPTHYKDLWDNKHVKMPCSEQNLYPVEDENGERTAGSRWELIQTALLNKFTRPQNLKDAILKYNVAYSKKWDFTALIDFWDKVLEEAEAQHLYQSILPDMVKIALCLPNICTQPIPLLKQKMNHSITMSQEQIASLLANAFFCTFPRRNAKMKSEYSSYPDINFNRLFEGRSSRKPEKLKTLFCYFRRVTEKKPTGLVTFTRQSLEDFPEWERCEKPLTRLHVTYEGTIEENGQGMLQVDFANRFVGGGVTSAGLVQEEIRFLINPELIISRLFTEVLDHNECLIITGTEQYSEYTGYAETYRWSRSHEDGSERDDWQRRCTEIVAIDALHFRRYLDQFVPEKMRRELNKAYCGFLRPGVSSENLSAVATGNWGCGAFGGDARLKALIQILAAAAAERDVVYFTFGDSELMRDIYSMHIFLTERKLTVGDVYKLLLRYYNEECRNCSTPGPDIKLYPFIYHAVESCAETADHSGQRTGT
"IC50 (PARG; PARG, TFMU-ADPr substrate)",IC50 (HCC1806; [1]),IC50 (PARG; [2]),"IC50 (HCC1806; HCC1806, 7 days, CellTiter-Glo)",SMILES,"IC50 (HCC1806; Homo sapiens, HCC1806, 168 h)"
191 nM,2110 nM,,,"CC(O)(C#Cc1ccccc1)C(=O)N1CCN(c2cc(S(=O)(=O)NC3(C#N)CC3)cn3c(-c4nnc(C(F)(F)F)s4)ncc23)CC1 (stereo not drawn) [Example 257, N-(1-cyanocyclopropyl)-8-(4-(2-hydroxy-2-methyl-4-phenylbut-3-ynoyl)piperazin-1-yl)-3-(5-(trifluoromethyl)-1,3,4-thiadiazol-2-yl)imidazo[1,5-a]pyridine-6-sulfonamide]",
7.64 nM,187 nM,,,"CC1(NS(=O)(=O)c2cc(N3CCN(C(=O)c4ccno4)CC3)c3cnc(-c4nnc(C(F)(F)F)s4)n3c2)CC1 [Example 329, 8-(4-(isoxazole-5-carbonyl)piperazin-1-yl)-N-(1-methylcyclopropyl)-3-(5-(trifluoromethyl)-1,3,4-thiadiazol-2-yl)imidazo[1,5-a]pyridine-6-sulfonamide]",
20.9 nM,1840 nM,,,"C[C@H]1CN(c2cc(S(=O)(=O)NC3(C)COC3)cn3c(-c4nnc(C(F)F)s4)nc(Cl)c23)C[C@H](CO)N1 [Example 402, 1-chloro-3-(5-(difluoromethyl)-1,3,4-thiadiazol-2-yl)-8-((3R,5S)-3-(hydroxymethyl)-5-methylpiperazin-1-yl)-N-(3-methyloxetan-3-yl)imidazo[1,5-a]pyridine-6-sulfonamide]",
100 nM,4610 nM,,,"O=C(C1CCN(c2cc(S(=O)(=O)NC3CC3)cn3c(-c4nnc(C(F)(F)F)s4)ncc23)CC1)N1CCC1 [Example 219, 8-(4-(azetidine-1-carbonyl)piperidin-1-yl)-N-cyclopropyl-3-(5-(trifluoromethyl)-1,3,4-thiadiazol-2-yl)imidazo[1,5-a]pyridine-6-sulfonamide]",
88.9 nM,> 30000 nM,< 100 nM,,"Cc1nnc(-c2cnn3c(N4CCN(C(=O)C(C)C)CC4)cc(S(=O)(=O)NC4(C#N)CC4)cc23)s1 [Example 30, N-(1-cyanocyclopropyl)-7-(4-isobutyrylpiperazin-1-yl)-3-(5-methyl-1,3,4-thiadiazol-2-yl)pyrazolo[1,5-a]pyridine-5-sulfonamide]",
525 nM,5000 to 30000 nM,500 to 1000 nM,6070 nM,"CC(C)C(=O)N1CCN(c2nc(S(=O)(=O)NC3(C)CC3)cn3c(-c4nnc(C(F)F)s4)ncc23)CC1 [Example 162, 3-(5-(difluoromethyl)-1,3,4-thiadiazol-2-yl)-8-(4-isobutyrylpiperazin-1-yl)-N-(1-methylcyclopropyl)imidazo[1,5-a]pyrazine-6-sulfonamide]",
2.09 nM,20 nM,,,"COC1(C(=O)N2CC=C(c3cc(S(=O)(=O)NC4(C#N)CC4)cn4c(-c5nnc(C(F)(F)F)s5)ncc34)CC2)CC1 [Example 379, N-(1-cyanocyclopropyl)-8-(1-(1-methoxycyclopropane-1-carbonyl)-1,2,3,6-tetrahydropyridin-4-yl)-3-(5-(trifluoromethyl)-1,3,4-thiadiazol-2-yl)imidazo[1,5-a]pyridine-6-sulfonamide]",
,> 30000 nM,> 1000 nM,,"CC(C)C(=O)N1CCN(c2cc(S(=O)(=O)NC34CC(F)(C3)C4)cn3c(-c4nnc(C(F)F)s4)ncc23)CC1 [Example 59, 3-(5-(difluoromethyl)-1,3,4-thiadiazol-2-yl)-N-(3-fluorobicyclo[1.1.1]pentan-1-yl)-8-(4-isobutyrylpiperazin-1-yl)imidazo[1,5-a]pyridine-6-sulfonamide]",
3.37 nM,874 nM,,,"CN(C)CCN(C)C(=O)N1CCN(c2cc(S(=O)(=O)NC3(C)COC3)cn3c(-c4nnc(C(F)F)s4)ncc23)CC1 [Example 187, 4-(3-(5-(difluoromethyl)-1,3,4-thiadiazol-2-yl)-6-(N-(3-methyloxetan-3-yl)sulfamoyl)imidazo[1,5-a]pyridin-8-yl)-N-(2-(dimethylamino)ethyl)-N-methylpiperazine-1-carboxamide]",
121 nM,> 30000 nM,100 to 500 nM,,"CC(C)C(=O)N1CCN(c2cc(S(=O)(=O)NC3(C)CC(F)(F)C3)cn3c(-c4nnc(C(F)F)s4)ncc23)CC1 [Example 61, N-(3,3-difluoro-1-methylcyclobutyl)-3-(5-(difluoromethyl)-1,3,4-thiadiazol-2-yl)-8-(4-isobutyrylpiperazin-1-yl)imidazo[1,5-a]pyridine-6-sulfonamide]",
8.32 nM,500 nM,,,"N#CC1(NS(=O)(=O)c2cc(N3CCN(C(=O)C(O)C(F)(F)F)CC3)c3cnc(-c4nnc(C(F)(F)F)s4)n3c2)CC1 (stereo not drawn) [Example 231, N-(1-cyanocyclopropyl)-8-(4-(3,3,3-trifluoro-2-hydroxypropanoyl)piperazin-1-yl)-3-(5-(trifluoromethyl)-1,3,4-thiadiazol-2-yl)imidazo[1,5-a]pyridine-6-sulfonamide]",
0.34 nM,11.5 nM,,,"COC1(C(=O)N2CCN(c3cc(S(=O)(=O)NC4(C)CC4)cn4c(-c5nnc(C(F)(F)F)s5)nc(C#N)c34)CC2)CC1 [Example 199, 1-cyano-8-(4-(1-methoxycyclopropane-1-carbonyl)piperazin-1-yl)-N-(1-methylcyclopropyl)-3-(5-(trifluoromethyl)-1,3,4-thiadiazol-2-yl)imidazo[1,5-a]pyridine-6-sulfonamide]",
3.31 nM,100 nM,,,"CC(C)C(=O)N1CCN(c2cc(S(=O)(=O)NC3(C)CC3)cn3c(-c4nnc(C(F)(F)F)s4)nc(C#N)c23)CC1 [Example 164, 1-cyano-8-(4-isobutyrylpiperazin-1-yl)-N-(1-methylcyclopropyl)-3-(5-(trifluoromethyl)-1,3,4-thiadiazol-2-yl)imidazo[1,5-a]pyridine-6-sulfonamide]",
3.83 nM,310 nM,,,"CN1CC(C(=O)N2CCN(c3cc(S(=O)(=O)NC4(C)CC4)cn4c(-c5nnc(C(F)(F)F)s5)ncc34)CC2)C1 [Example 333, 8-(4-(1-methylazetidine-3-carbonyl)piperazin-1-yl)-N-(1-methylcyclopropyl)-3-(5-(trifluoromethyl)-1,3,4-thiadiazol-2-yl)imidazo[1,5-a]pyridine-6-sulfonamide]",
0.15 nM,14 nM,,,"[2H]C([2H])([2H])OC1(C(=O)N2CCN(c3cc(S(=O)(=O)NC4(C)CC4)cn4c(-c5nnc(C(F)(F)F)s5)ncc34)CC2)CC1 [Example 168, 8-(4-(1-(methoxy-d3)cyclopropane-1-carbonyl)piperazin-1-yl)-N-(1-methylcyclopropyl)-3-(5-(trifluoromethyl)-1,3,4-thiadiazol-2-yl)imidazo[1,5-a]pyridine-6-sulfonamide]",
43.7 nM,150 nM,,,"N#CC1(NS(=O)(=O)c2cc(N3CCC(c4nnco4)CC3)c3cnc(-c4nnc(C(F)(F)F)s4)n3c2)CC1 [Example 221, 8-(4-(1,3,4-oxadiazol-2-yl)piperidin-1-yl)-N-(1-cyanocyclopropyl)-3-(5-(trifluoromethyl)-1,3,4-thiadiazol-2-yl)imidazo[1,5-a]pyridine-6-sulfonamide]",
< 0.1 nM,6.34 nM,,,"COC1(C(=O)N2CCN(c3cc(S(=O)(=O)NC4(C)CC4)cn4c(-c5nnc(C(F)F)s5)ncc34)CC2)CC1 [Example 196, 3-(5-(difluoromethyl)-1,3,4-thiadiazol-2-yl)-8-(4-(1-methoxycyclopropane-1-carbonyl)piperazin-1-yl)-N-(1-methylcyclopropyl)imidazo[1,5-a]pyridine-6-sulfonamide]",
4.37 nM,1340 nM,,,"O=S(=O)(NC1(CF)COC1)c1cc(N2CCC3(CC2)COC3)c2cnc(-c3nnc(C(F)(F)F)s3)n2c1 [Example 176, N-(3-(fluoromethyl)oxetan-3-yl)-8-(2-oxa-7-azaspiro[3.5]nonan-7-yl)-3-(5-(trifluoromethyl)-1,3,4-thiadiazol-2-yl)imidazo[1,5-a]pyridine-6-sulfonamide]",
4.13 nM,540 nM,,,"CC1(NS(=O)(=O)c2cc(N3CCN(C(=O)c4ccc5c(c4)OCO5)CC3)c3cnc(-c4nnc(C(F)(F)F)s4)n3c2)CC1 [Example 307, 8-(4-(benzo[d][1,3]dioxole-5-carbonyl)piperazin-1-yl)-N-(1-methylcyclopropyl)-3-(5-(trifluoromethyl)-1,3,4-thiadiazol-2-yl)imidazo[1,5-a]pyridine-6-sulfonamide]",
1.82 nM,27 nM,,,"Cc1nc(-c2nnc(C(F)F)s2)n2cc(S(=O)(=O)NC3(C)COC3)cc(N3CCC4(CC3)COC4)c12 [Example 169, 3-(5-(difluoromethyl)-1,3,4-thiadiazol-2-yl)-1-methyl-N-(3-methyloxetan-3-yl)-8-(2-oxa-7-azaspiro[3.5]nonan-7-yl)imidazo[1,5-a]pyridine-6-sulfonamide]",
94.6 nM,5000 to 30000 nM,< 100 nM,,"Cc1cnc(-c2cnn3c(N4CCN(C(=O)C(C)C)CC4)cc(S(=O)(=O)NC4(C#N)CC4)cc23)s1 [Example 29, N-(1-cyanocyclopropyl)-7-(4-isobutyrylpiperazin-1-yl)-3-(5-methylthiazol-2-yl)pyrazolo[1,5-a]pyridine-5-sulfonamide]",
20 nM,84.3 nM,,,"CC1(NS(=O)(=O)c2cc(N3CCN(C(=O)C(O)C(F)(F)F)CC3)c3cnc(-c4nnc(C(F)(F)F)s4)n3c2)CC1 (stereo not drawn) [Example 282, N-(1-methylcyclopropyl)-8-(4-(3,3,3-trifluoro-2-hydroxypropanoyl)piperazin-1-yl)-3-(5-(trifluoromethyl)-1,3,4-thiadiazol-2-yl)imidazo[1,5-a]pyridine-6-sulfonamide]",

SMILES,"IC50 (PARG; PARG, TFMU-ADPr substrate)",IC50 (HCC1806; [1]),IC50 (PARG; [2]),"IC50 (HCC1806; HCC1806, 7 days, CellTiter-Glo)","IC50 (HCC1806; Homo sapiens, HCC1806, 168 h)"
"CN(C)CCCOC1(C(=O)N2CCN(c3cc(S(=O)(=O)NC4(C)CC4)cn4c(-c5nnc(C(F)(F)F)s5)ncc34)CC2)CC1 [Example 385, 8-(4-(1-(3-(dimethylamino)propoxy)cyclopropane-1-carbonyl)piperazin-1-yl)-N-(1-methylcyclopropyl)-3-(5-(trifluoromethyl)-1,3,4-thiadiazol-2-yl)imidazo[1,5-a]pyridine-6-sulfonamide]",0.48 nM,,,,40 nM
